According to ChEMBL document CHEMBL3856252, “Truncated Autoinducing Peptides as Antagonists of Staphylococcus lugdunensis Quorum Sensing” (J Med Chem, 2016):
Where a SMILES comes first, the peptide text is derived from it.

Key:
[1] = Inhibition of Staphylococcus aureus RN6390B quorum sensing system AgrC-1 using cephalosporin/nitrocefin as substrate by P3 reporter assay
[2] = Competitive inhibition of Staphylococcus aureus RN9222 quorum sensing system AgrC-1 by colorimetric analysis
[3] = Competitive inhibition of Staphylococcus aureus RN9372 quorum sensing system AgrC-2 by colorimetric analysis
[4] = Competitive inhibition of Staphylococcus aureus quorum sensing system AgrC-3 by colorimetric analysis
[5] = Competitive inhibition of Staphylococcus aureus SA502A quorum sensing system AgrC-2 after 24 hrs in presence of mouse IgG2a by YFP reporter gene assay
[6] = Competitive inhibition of Staphylococcus aureus MW2 quorum sensing system AgrC-3 after 24 hrs in presence of mouse IgG2a by YFP reporter gene assay

For `CC[C@H](C)[C@@H]1NC(=O)[C@H](Cc2ccccc2)NC(=O)[C@H](CC(=O)O)NC(=O)[C@@H](NC(=O)[C@@H](NC(=O)[C@H](CO)NC(=O)[C@@H](N)Cc2ccc(O)cc2)[C@@H](C)O)CSC(=O)[C@H](CCSC)NC1=O` (HELM PEPTIDE1{Y.S.T.C.D.F.I.M}$PEPTIDE1,PEPTIDE1,4:R3-8:R2$$$V2.0), the IC50 [1] was 20 nM.
In the case of `CC(=O)N[C@H]1CSC(=O)[C@H](Cc2ccccc2)NC(=O)[C@H](Cc2ccc(O)cc2)NC(=O)[C@H](C)NC(=O)[C@H](CC(N)=O)NC1=O` (HELM PEPTIDE1{[ac].C.N.A.Y.F}$PEPTIDE1,PEPTIDE1,2:R3-6:R2$$$V2.0), the IC50 [2] is reported as 380 nM, the IC50 [3] is reported as 420 nM and the IC50 [4] is reported as 40 nM.
Molecule `CC(=O)N[C@H]1CSC(=O)[C@H](Cc2ccccc2)NC(=O)[C@H](Cc2ccc(O)cc2)NC(=O)[C@H](CO)NC(=O)[C@H](C)NC1=O` (HELM PEPTIDE1{[ac].C.A.S.Y.F}$PEPTIDE1,PEPTIDE1,2:R3-6:R2$$$V2.0) has an IC50 [5] of 160 nM and an IC50 [6] of 13 nM.
